Columns and labels:
[1] = tested on: ATP synthesis; assay: luciferin-luciferase assay of mitochondrial ATP; type: cell-based; conditions: living cells, basal conditions and following Ca2+-dependent stimulus
Text: (§1) The data were obtained by recording the absorbance changes at 540 nm at the tenth minute of measurement, and subsequently converted to a percentage. Black bar: untreated and unstimulated mitochondria; black control bar: untreated and Ca2+ stimulated mitochondria; dark grey bar: pre-treatment with CsA and stimulation with Ca2+; light bar: pre-treatment with RR and stimulation with Ca2+; first white bar from the top: treatment with compound 1 and stimulation with Ca2+; white bars: pre-treatment with the compounds of the invention and stimulation with Ca2+. […] The subcellular localization of compound 1 was studied by HPLC-HRMS analysis of samples from different cellular compartments, before and after treatment with the compound. […] The grey region of the HPLC spectrum corresponds to a single mass peak at [M+1]+ m/z of 386.1534 (lower panel, [M+H]+ calculated for compound 1 = 386.1533). […] The grey band of the HPLC spectrum corresponds to a mixture of mass peaks detected through the HRMS analysis (lower panel). C: HPLC-HRMS profile of the mitochondrial fraction isolated from cells pre-treated with compound 1 which clearly indicates the presence of the compound with an HPLC band at a retention time of 8.2 min (upper panel). The grey area of the signal corresponds to a mixture of mass peaks (lower panel) among which [M+1]+ m/z of 386.1534, which identifies the undetectable compound 1 in the corresponding untreated fraction (panel B). […] A: Content of mitochondrial ATP in living cells under basal conditions, evaluated based on the luciferase-luciferin protocol. B: Mitochondrial ATP production following stimulation by a Ca2+ dependent agonist. "Histamine" indicates stimulus with histamine. C: MTT cell viability assay after 24h, 48h and 72h of treatment of live cells with compounds of Formula (I) at different concentrations. In particular, black bar: cells treated with vehicle; dotted bars: compound at the concentration of 1 µM; bars with small black and white squares: compound at a concentration of 5 µM; bars with large black and white squares: compound at a concentration of 10 µM. A standardization was carried out with respect to the vehicle. […] A: Diagram depicting an experiment on an isolated rat heart by the Langendorff system. B: Coronary artery perfusion pressure (CPP) recorded on rat heart in conditions of stabilization, ischemia and reperfusion. C: Pressure developed by the left ventricle (LVPdp) recorded under the same conditions as B. D: End-diastolic pressure recorded in the same conditions as B and C. E: TUNEL apoptotic assay for the evaluation of the cardioprotective effect in cardiomyocytes of the heart.**:p value<0.01; ****:p value<0.0001.
(§2) Compounds 5c, 6g and 10 resulted to be very potent in inhibiting mPTP in the in vitro tests. In order to identify any side effects in the use of these compounds in living cells that could exclude their future development in therapy, and given the crucial role of the C subunit of the ATP synthase in energy production, two important parameters were evaluated, such as cell viability and mitochondrial ATP content, in basal conditions and following Ca^2+-dependent stimulus (Figure 5A-C).

[2] = tested on: mPTP; assay: mitochondrial swelling assay (absorbance at 540 nm, Ca2+ stimulation); type: biochemical; conditions: mitochondria isolated from mouse liver, monitored for 10 minutes
Text: as §1, with “E: TUNEL apoptotic assay for the evaluation of the cardioprotective effect in cardiomyocytes of the heart.**:p value<0.01; ****:p value<0.0001.” left out
Mitochondria isolated from mouse liver were checked for purity (Figure 3A) and functionality thereof, and then stimulated with Ca^2+; the decrease in absorbance at 540 nm, indicative of mitochondrial swelling, was monitored for 10 minutes.

[3] = tested on: mPTP; assay: cobalt-calcein assay of Ca2+-induced mPTP opening in HeLa cells (ionomycin stimulation); type: cell-based; conditions: pre-treatment 1 µM, assessed by the kinetics slope
[4] = subcellular fractionation with HPLC-HRMS detection (subcellular localization); type: cell-based; conditions: cells pre-treated with compound, mitochondria, cytosol and endoplasmic reticulum fractions
Text: The data were obtained by recording the absorbance changes at 540 nm at the tenth minute of measurement, and subsequently converted to a percentage. Black bar: untreated and unstimulated mitochondria; black control bar: untreated and Ca2+ stimulated mitochondria; dark grey bar: pre-treatment with CsA and stimulation with Ca2+; light bar: pre-treatment with RR and stimulation with Ca2+; first white bar from the top: treatment with compound 1 and stimulation with Ca2+; white bars: pre-treatment with the compounds of the invention and stimulation with Ca2+. […] The grey region of the HPLC spectrum corresponds to a single mass peak at [M+1]+ m/z of 386.1534 (lower panel, [M+H]+ calculated for compound 1 = 386.1533). […] The grey band of the HPLC spectrum corresponds to a mixture of mass peaks detected through the HRMS analysis (lower panel). […] A: Content of mitochondrial ATP in living cells under basal conditions, evaluated based on the luciferase-luciferin protocol. […] B: Coronary artery perfusion pressure (CPP) recorded on rat heart in conditions of stabilization, ischemia and reperfusion. C: Pressure developed by the left ventricle (LVPdp) recorded under the same conditions as B. D: End-diastolic pressure recorded in the same conditions as B and C. […]

[5] = tested on: release of cytochrome C (Cyt.C) from the mitochondria; assay: detection of cytochrome c in the mitochondrial fraction under Ca2+-dependent stress; type: cell-based; conditions: Ca2+-dependent stress conditions
[6] = tested on: live cells; assay: MTT cell viability assay; type: cell-based; conditions: micromolar concentrations (1, 5, 10 µM); for reduction of MTT compared to the control: 24h and 48h; for effect on cell viability (MTT): after 72h
Text: (§3) The data were obtained by recording the absorbance changes at 540 nm at the tenth minute of measurement, and subsequently converted to a percentage. Black bar: untreated and unstimulated mitochondria; black control bar: untreated and Ca2+ stimulated mitochondria; dark grey bar: pre-treatment with CsA and stimulation with Ca2+; light bar: pre-treatment with RR and stimulation with Ca2+; first white bar from the top: treatment with compound 1 and stimulation with Ca2+; white bars: pre-treatment with the compounds of the invention and stimulation with Ca2+. […] The subcellular localization of compound 1 was studied by HPLC-HRMS analysis of samples from different cellular compartments, before and after treatment with the compound. […] The grey region of the HPLC spectrum corresponds to a single mass peak at [M+1]+ m/z of 386.1534 (lower panel, [M+H]+ calculated for compound 1 = 386.1533). […] The grey band of the HPLC spectrum corresponds to a mixture of mass peaks detected through the HRMS analysis (lower panel). C: HPLC-HRMS profile of the mitochondrial fraction isolated from cells pre-treated with compound 1 which clearly indicates the presence of the compound with an HPLC band at a retention time of 8.2 min (upper panel). The grey area of the signal corresponds to a mixture of mass peaks (lower panel) among which [M+1]+ m/z of 386.1534, which identifies the undetectable compound 1 in the corresponding untreated fraction (panel B). […] A: Content of mitochondrial ATP in living cells under basal conditions, evaluated based on the luciferase-luciferin protocol. B: Mitochondrial ATP production following stimulation by a Ca2+ dependent agonist. "Histamine" indicates stimulus with histamine. C: MTT cell viability assay after 24h, 48h and 72h of treatment of live cells with compounds of Formula (I) at different concentrations. […] B: Coronary artery perfusion pressure (CPP) recorded on rat heart in conditions of stabilization, ischemia and reperfusion. C: Pressure developed by the left ventricle (LVPdp) recorded under the same conditions as B. D: End-diastolic pressure recorded in the same conditions as B and C. […]
as §2

[7] = tested on: rat isolated heart; assay: isolated rat heart ischemia-reperfusion (Langendorff system), with TUNEL assay; type: in vivo; conditions: ex vivo
Text: as §3
Considering the potential of the inhibitors claimed herein in relation to: i) ability to desensitize the opening of mPTP; ii) ability to protect against cell death by inhibiting the release of Cyt.C; iii) ability to preserve cell viability, and iv) mitochondrial ATP content, the effects of compound 10 were studied in an animal model of cardiac ischemia-reperfusion. […] At the end of the procedure, the hearts were also analyzed for cell death by terminal deoxynucleotidyl transferase dUTP nick-end labelling (TUNEL) assay.

[8] = 10 µM constant-volume perfusion during the first 10 minutes of reperfusion, 30 minutes ischemia, 1 hour reperfusion

SMILES	proton flow and ATP synthesis / ATP levels [1]	inhibition of Ca2+-induced mPTP opening (mitochondrial swelling, decrease in absorbance at 540 nm) [2]	release of Cyt.C from the mitochondria [5]	reduction of MTT compared to the control [6]	effect on cell viability (MTT) [6]	also measured
CC[C@H]1/C=C/C=C/C[C@@H](C)[C@H](O)[C@@](C)(O)C(=O)[C@@H](C)[C@H](O)[C@@H](C)C(=O)[C@@H](C)[C@H](O)[C@@H](C)/C=C/C(=O)O[C@@H]2[C@H](C)[C@H](CC1)O[C@]1(CC[C@H](C)[C@H](C[C@@H](C)O)O1)[C@H]2C [Oligomycin, reference compound]	significantly inhibited					
N.N.N.N.N.N.N.N.N.N.N.N.N.N.[Cl-].[Cl-].[Cl-].[Cl-].[Cl-].[Cl-].[O-2].[O-2].[Ru+3].[Ru+3].[Ru+4] [RR, Red Ruthenium, reference compound]		prevented				
Cc1ccc(S(=O)(=O)N2CCC3(CC2)C(=O)NCN3c2ccccc2)cc1 [compound 1, 1-phenyl-8-tosyl-1,3,8-triazaspiro[4.5]decan-4-one]	significantly inhibited					desensitization of the mPTP opening [3]: about 50%; subcellular localization [4]: selective accumulation of the compound in the mitochondria
O=C1N=CN(c2ccc(Cl)cc2)C12CCN(Cc1ccccc1)CC2 [compound 5c, 8-benzyl-1-(4-chlorophenyl)-1,3,8-triazaspiro[4.5]dec-2-en-4-one]	did not reduce ATP levels	significantly more performing than compound 1	prevent the release of Cyt.C	did not induce a significant reduction	some negative effect	
O=C1NCN(c2cccc(C(F)(F)F)c2)C12CCN(Cc1ccccc1)CC2 [compound 6g, 8-benzyl-1-(3-(trifluoromethyl)phenyl)-1,3,8-triazaspiro[4.5]decan-4-one]	did not reduce ATP levels	significantly more performing than compound 1	prevent the release of Cyt.C			
O=C1NCN(c2ccccc2)C12CCN(S(=O)(=O)c1ccc(Cl)s1)CC2 [compound 10, 8-((5-chlorotiophen-2-yl)sulfonyl)-1-phenyl-1,3,8-triazaspiro[4.5]decan-4-one]	did not reduce ATP levels	significantly more performing than compound 1	prevent the release of Cyt.C	did not induce a significant reduction	some negative effect	coronary perfusion pressure (CPP) [7, 8]: decrease; diastolic pressure (EDP) [7, 8]: decrease; diastolic pressure of the left ventricle (LVEDP) [7, 8]: increased; percentage of cardiomyocytes positive for TUNEL (apoptotic) ([7]; 10µM, hearts at the end of the procedure, 64% positive without compound): significantly reduced

Reference: patent EP3829579B1, “1,3,8-TRIAZASPIRO COMPOUNDS AND THEIR USE AS MEDICAMENTS FOR THE TREATMENT OF REPERFUSION INJURY” (Maria Cecilia Hospital S.p.A., priority 2018, dated 2020)
